Source: the NIST ThermoML archive (doi:10.1021/acs.jced.9b00074)

Test: xn = mol fraction of the nth substance listed
Details: 100 kPa, Liquid; for mass density: Vibrating tube method; for viscosity: Falling or rolling sphere viscometry

OC1CCCC1 [cyclopentanol] + C1C[C@@H]2[C@H]3CC[C@H](C3)[C@@H]2C1
Details | mass density, 313.15 K [kg/m3] | mass density, 318.15 K [kg/m3] | mass density, 323.15 K [kg/m3] | mass density, 328.15 K [kg/m3] | mass density, 333.15 K [kg/m3] | viscosity, 318.15 K [mPa·s] | viscosity, 323.15 K [mPa·s] | viscosity, 328.15 K [mPa·s] | viscosity, 333.15 K [mPa·s]
x1 = 0.101 | 919.47 | 915.4 | 911.31 | 907.2 | 903.08 | 1.94 | 1.779 | 1.639 | 1.514
x1 = 0.201 | 919.57 | 915.45 | 911.3 | 907.12 | 902.92 | 1.965 | 1.799 | 1.65 | 1.521
x1 = 0.296 | 919.9 | 915.74 | 911.55 | 907.33 | 903.08 | 2.053 | 1.871 | 1.711 | 1.569
x1 = 0.3962 | 920.57 | 916.37 | 912.15 | 907.88 | 903.59 | 2.171 | 1.968 | 1.791 | 1.635
x1 = 0.5016 | 921.52 | 917.29 | 913.03 | 908.73 | 904.4 | 2.348 | 2.112 | 1.908 | 1.732
x1 = 0.6017 | 922.73 | 918.48 | 914.19 | 909.87 | 905.5 | 2.58 | 2.302 | 2.063 | 1.858
x1 = 0.7011 | 924.31 | 920.05 | 915.74 | 911.39 | 907 | 2.893 | 2.554 | 2.268 | 2.023
x1 = 0.7968 | 926.07 | 921.82 | 917.51 | 913.16 | 908.75 | 3.293 | 2.876 | 2.527 | 2.233
x1 = 0.9005 | 928.4 | 924.18 | 919.9 | 915.56 | 911.17 | 3.878 | 3.346 | 2.906 | 2.54
